# Results published in US20240269155A1, “METHODS AND USES OF BORON COMPOUNDS IN THE TREATMENT OF NONTUBERCULOUS MYCOBACTERIUM INFECTIONS AND PHARMACEUTICAL COMPOSITIONS FOR TREATMENT OF SAME” (priority 2022, published 2024).
# Where two headings read alike, the source gives them in different places.
# Columns and labels:
# Mycobacteria pathogens = assay: MIC against mycobacteria pathogens, summary over species; type: cell-based, nontuberculous Mycobacterium
# M. massiliense = assay: MIC determination (CLSI M24-A2); type: cell-based, Mycobacterium massiliense; conditions: Mycobacteroides abscessus, read-out: MIC
# Protocol: (§1) The in vitro activity of the parent boron compound described herein was assessed by standard testing procedures such as the determination of minimum inhibitory concentration (MIC) as described in Clinical and Laboratory Standards Institute (CLSI) document M24-A2. Lower MIC values indicate high antibacterial activity, while higher MIC values indicate a reduced antibacterial activity. Generally, MIC values of about ≤2 mg/L indicate a good therapeutic (i.e., suitable for therapy) potency for antibacterial drugs, while MIC values of ≥8 mg/L indicate a lack of therapeutically useful activity for a test compound.
# (§2) (MIC ranges from 0.063-2 mg/L).
# M. avium = assay: MIC determination (CLSI M24-A2); type: cell-based, Mycobacterium avium; conditions: Mycobacterium avium, read-out: MIC
# Protocol: as §1, §2
# M. gordonae = assay: MIC determination (CLSI M24-A2); type: cell-based, Mycobacterium gordonae; conditions: Mycobacterium gordonae, read-out: MIC
# Protocol: as §1, §2
# M. peregrinum = assay: MIC determination (CLSI M24-A2); type: cell-based, Mycobacterium peregrinum
# Protocol: as §1, §2
# M. smegmatis = assay: MIC determination (CLSI M24-A2); type: cell-based, Mycobacterium smegmatis
# Protocol: as §1, §2
# M. intercelleulare = assay: MIC determination (CLSI M24-A2); type: cell-based, Mycobacterium intercelleulare; conditions: Mycobacterium, read-out: MIC
# Protocol: as §1, §2
# M. scrofulaceum = assay: MIC determination (CLSI M24-A2); type: cell-based, Mycobacterium scrofulaceum; conditions: Mycobacterium scrofulaceum, read-out: MIC
# Protocol: as §1, §2
# M. fortuitum = assay: MIC determination (CLSI M24-A2); type: cell-based, Mycobacterium fortuitum
# Protocol: as §1, §2
# M. abscessus = assay: MIC determination (CLSI M24-A2); type: cell-based, Mycobacterium abscessus; conditions: Mycobacteroides abscessus, read-out: MIC
# Protocol: as §1, §2
# [1] = Lung distribution study in mouse; type: in vivo, Balb/C mouse; conditions: 10 mg/kg po
# [2] = tested on: clinical isolates of M. abscessus complex; assay: MIC against clinical isolates of M. abscessus complex; type: cell-based, M. abscessus and M. massiliense; conditions: Mycobacteroides abscessus, read-out: MIC
# [3] = tested on: clinical isolates of M. abscessus complex; assay: MBC against clinical isolates of M. abscessus complex; type: cell-based, M. abscessus and M. massiliense; conditions: for Classification: from MBC/MIC ratio
# [4] = Mycolicibacterium peregrinum, read-out: MIC
# [5] = Mycolicibacterium smegmatis, read-out: MIC
# [6] = Mycolicibacterium fortuitum, read-out: MIC
smiles,measurement,setting,value
OB1OCc2cc(F)ccc21 [AN2690],activity against all NTM species tested,Mycobacteria pathogens; all NTM species tested,moderate or no activity
same,MIC,M. massiliense,4 µg/mL
same,MIC,M. avium,> 8 µg/mL
same,MIC,M. gordonae,8 µg/mL
same,MIC,M. peregrinum; [4],> 8 µg/mL
same,MIC,M. smegmatis; [5],> 8 µg/mL
same,MIC,M. intercelleulare,> 8 µg/mL
same,MIC,M. scrofulaceum,8 µg/mL
same,MIC,M. fortuitum; [6],> 8 µg/mL
same,MIC,M. abscessus,> 8 µg/mL
"CC(C)C(=O)OC[C@H](COc1cccc2c1B(O)O[C@@H]2CN)OC(=O)C(C)C.Cl [Example 2, (2S)-1-{[(3S)-3-(Aminomethyl)-1-hydroxy-1,3-dihydrobenzo[2,1-c][1,2]oxaborol-7-yl]oxy}-3-[(2-methylpropanoyl)oxy]propan-2-yl 2-methylpropanoate hydrochloride]",AUClast,"[1]; analyte Example 2 (prodrug), lung",968 ng·h/g
same,conversion of prodrug to Example 4 in vivo,[1]; plasma,rapidly converted to Example 4
same,half-life,"[1]; Balb/C, analyte Example 2 (prodrug), lung",6.42 h
same,AUC(0-t),"[1]; Balb/C, analyte Example 2 (prodrug), plasma",0.0421 ng·h/mL
"Cl.NC[C@H]1OB(O)c2c(OCCO)ccc(Cl)c21 [GSK656, reference compound]",fold less active than Example 4 (MIC),"Mycobacteria pathogens; M. fortuitum, M. peregrinum, M. smegmatis",more than 64 fold
same,MIC,M. massiliense,0.063 µg/mL
same,MIC,M. avium,> 8 µg/mL
same,MIC,M. gordonae,0.5 µg/mL
same,MIC,M. peregrinum,8 µg/mL
same,MIC,M. peregrinum; [4],≥ 8 µg/mL
same,MIC,[2]; clinical isolate A35,0.063 µg/mL
same,MIC,[2]; clinical isolate A51,0.063 µg/mL
same,MIC,[2]; clinical isolate A197,0.063 µg/mL
same,MIC,[2]; clinical isolate A213,0.063 µg/mL
same,MIC,[2]; clinical isolate A215,0.063 µg/mL
same,MIC,[2]; clinical isolate A217,0.063 µg/mL
same,MIC,[2]; clinical isolate A222,0.063 µg/mL
same,MIC,[2]; clinical isolate A255,0.063 µg/mL
same,MIC,[2]; clinical isolate A268,0.125 µg/mL
same,MIC,[2]; clinical isolate A274,0.125 µg/mL
same,MIC,[2]; clinical isolate A311,0.063 µg/mL
same,MIC,[2]; clinical isolate A353,0.125 µg/mL
same,MIC,[2]; clinical isolate G73,0.063 µg/mL
same,MIC,[2]; clinical isolate G74,0.063 µg/mL
same,MIC,[2]; clinical isolate G87,0.063 µg/mL
same,MIC,[2]; clinical isolate G104,0.063 µg/mL
same,MIC,[2]; clinical isolate G110,0.063 µg/mL
same,MIC,[2]; clinical isolate G164,0.063 µg/mL
same,MIC,[2]; clinical isolate G182,0.063 µg/mL
same,MIC,M. smegmatis,>8 µg/mL
same,MIC,M. smegmatis; [5],≥ 8 µg/mL
same,MIC,M. intercelleulare,> 8 µg/mL
same,MIC,M. scrofulaceum,4 µg/mL
same,MIC,M. fortuitum,>8 µg/mL
same,MIC,M. fortuitum; [6],≥ 8 µg/mL
same,MIC,M. abscessus,0.063 µg/mL
same,bactericidal/bacteriostatic classification over the isolates,[3]; 20 clinical isolates of M. abscessus complex,bacteriostatic against all isolates
same,MBC,"[3]; Mycobacteroides abscessus, clinical isolate A35, read-out: MBC",> 2 µg/mL
same,MBC,"[3]; Mycobacteroides abscessus, clinical isolate A51, read-out: MBC",> 2 µg/mL
same,MBC,"[3]; Mycobacteroides abscessus, clinical isolate A197, read-out: MBC",> 2 µg/mL
same,MBC,"[3]; Mycobacteroides abscessus, clinical isolate A213, read-out: MBC",2 µg/mL
same,MBC,"[3]; Mycobacteroides abscessus, clinical isolate A215, read-out: MBC",2 µg/mL
same,MBC,"[3]; Mycobacteroides abscessus, clinical isolate A217, read-out: MBC",2 µg/mL
same,MBC,"[3]; Mycobacteroides abscessus, clinical isolate A255, read-out: MBC",2 µg/mL
same,MBC,"[3]; Mycobacteroides abscessus, clinical isolate A268, read-out: MBC",> 4 µg/mL
same,MBC,"[3]; Mycobacteroides abscessus, clinical isolate A274, read-out: MBC",> 4 µg/mL
same,MBC,"[3]; Mycobacteroides abscessus, clinical isolate A311, read-out: MBC",1 µg/mL
same,MBC,"[3]; Mycobacteroides abscessus, clinical isolate A353, read-out: MBC",2 µg/mL
same,MBC,"[3]; Mycobacteroides abscessus, clinical isolate G73, read-out: MBC",> 2 µg/mL
same,MBC,"[3]; Mycobacteroides abscessus, clinical isolate G74, read-out: MBC",> 4 µg/mL
same,MBC,"[3]; Mycobacteroides abscessus, clinical isolate G87, read-out: MBC",> 2 µg/mL
same,MBC,"[3]; Mycobacteroides abscessus, clinical isolate G104, read-out: MBC",2 µg/mL
same,MBC,"[3]; Mycobacteroides abscessus, clinical isolate G110, read-out: MBC",> 2 µg/mL
same,MBC,"[3]; Mycobacteroides abscessus, clinical isolate G164, read-out: MBC",> 2 µg/mL
same,MBC,"[3]; Mycobacteroides abscessus, clinical isolate G182, read-out: MBC",> 2 µg/mL
same,Classification,[3]; clinical isolate A35,Bacteriostatic (bacteriostatic if the ratio was >4)
same,Classification,[3]; clinical isolate A51,Bacteriostatic (bacteriostatic if the ratio was >4)
same,Classification,[3]; clinical isolate A197,Bacteriostatic (bacteriostatic if the ratio was >4)
same,Classification,[3]; clinical isolate A213,Bacteriostatic (bacteriostatic if the ratio was >4)
same,Classification,[3]; clinical isolate A215,Bacteriostatic (bacteriostatic if the ratio was >4)
same,Classification,[3]; clinical isolate A217,Bacteriostatic (bacteriostatic if the ratio was >4)
same,MBC,[3]; clinical isolate A222,>>
same,Classification,[3]; clinical isolate A222,Bacteriostatic (bacteriostatic if the ratio was >4)
same,Classification,[3]; clinical isolate A232,Bacteriostatic (bacteriostatic if the ratio was >4)
same,Classification,[3]; clinical isolate A255,Bacteriostatic (bacteriostatic if the ratio was >4)
same,Classification,[3]; clinical isolate A268,Bacteriostatic (bacteriostatic if the ratio was >4)
same,Classification,[3]; clinical isolate A274,Bacteriostatic (bacteriostatic if the ratio was >4)
same,Classification,[3]; clinical isolate A311,Bacteriostatic (bacteriostatic if the ratio was >4)
same,Classification,[3]; clinical isolate A353,Bacteriostatic (bacteriostatic if the ratio was >4)
same,Classification,[3]; clinical isolate G73,Bacteriostatic (bacteriostatic if the ratio was >4)
same,Classification,[3]; clinical isolate G74,Bacteriostatic (bacteriostatic if the ratio was >4)
same,Classification,[3]; clinical isolate G87,Bacteriostatic (bacteriostatic if the ratio was >4)
same,Classification,[3]; clinical isolate G104,Bacteriostatic (bacteriostatic if the ratio was >4)
same,Classification,[3]; clinical isolate G110,Bacteriostatic (bacteriostatic if the ratio was >4)
same,Classification,[3]; clinical isolate G164,Bacteriostatic (bacteriostatic if the ratio was >4)
same,Classification,[3]; clinical isolate G182,Bacteriostatic (bacteriostatic if the ratio was >4)
CC(C)C(=O)OC[C@H](COc1cccc2c1B(O)O[C@@H]2CN)OC(=O)C(C)C.Cl [drawing 20],MIC,M. avium,> 8 µg/mL
same,MIC,M. intercelleulare,> 8 µg/mL
same,MIC,M. abscessus,> 8 µg/mL
